Experiment [1] relates to IL-23 stimulated Kit225 T cells (STAT-dependent luciferase reporter). The experiment can be described thus: Kit225 T cell assay, IL-23-stimulated STAT-dependent luciferase reporter. In kind it is cell-based, human. Conditions: 20 ng/mL human recombinant IL-23, 5-6 hours; read-out: IL-23 Kit225 Reporter (IC50). The method, then:
(§1) Kit225 T cells with a stably-integrated STAT-dependent luciferase reporter were plated in RPMI (Gibco) containing 10% heat-inactivated FBS (Gibco) and 100 U/mL PenStrep (Gibco). The cells were then stimulated with either 20 ng/mL human recombinant IL-23 or 200 U/mL human recombinant IFNα (PBL InterferonSource) for 5-6 hours. Luciferase expression was measured using the STEADY-GLO® Luciferase Assay System (Promega) according to the manufacturer's instructions. Inhibition data were calculated by comparison to no inhibitor control wells for 0% inhibition and non-stimulated control wells for 100% inhibition.

Experiment [2] relates to IFNα stimulated Kit225 T cells (STAT-dependent luciferase reporter). Nature of the experiment: Kit225 T cell assay, IFNα-stimulated STAT-dependent luciferase reporter. In kind it is cell-based, human. The settings on record: 200 U/mL human recombinant IFNα, 5-6 hours; read-out: IFNα Kit225 Reporter (IC50). How it is done: as §1

The values that follow come from patent US11021475B2, “Amide-substituted heterocyclic compounds useful as modulators of IL-12, IL-23 and/or IFN alpha responses” (Bristol-Myers Squibb Company, priority 2012, dated 2021).

As for `CNC(=O)c1nnc(Nc2ccc(F)cn2)cc1Nc1cccc(-c2ccn(C)n2)c1OC` [Example 55], the IC50 in experiment [1] and in experiment [2] was 20 nM throughout.

On to `CNC(=O)c1nnc(Nc2cc(C)c(F)cn2)cc1Nc1cccc(-c2ncn(C)n2)c1OC` [Example 56], for which the IC50 was 7.01 nM in experiment [1] and 5.45 nM in experiment [2].

On to `CNC(=O)c1nnc(Nc2cc(C)nc(C)n2)cc1Nc1cccc(-c2cnn(C)c2)c1OC` [Example 57], for which the results for the IC50 in experiment [1] and in experiment [2] were 6.01 nM and 6.48 nM, respectively.

On to `CNC(=O)c1nnc(Nc2ccccn2)cc1Nc1cccc(-c2ccn(C)n2)c1OC` [Example 58], for which the results for the IC50 in experiment [1] and in experiment [2] were 20 nM and 8.59 nM, respectively.

Turning to `CNC(=O)c1nnc(Nc2cc(C)c(F)cn2)cc1Nc1cccc(-c2cnn(C)c2)c1OC` [Example 59], the IC50 in experiment [1] and in experiment [2] was 20 nM in each case.

As for `CNC(=O)c1nnc(Nc2cc(C)n(C)n2)cc1Nc1cccc(-c2ncn(C)n2)c1OC` [Example 60], the IC50 was 10 nM in experiment [1] and 3.38 nM in experiment [2].

Regarding `CNC(=O)c1nnc(Nc2cc(OC(C)C)nc(C)n2)cc1Nc1cccc(-c2ncn(C)n2)c1OC` [Example 62], the results for the IC50 in experiment [1] and in experiment [2] were 30 nM and 20 nM, respectively.

In the case of `CNC(=O)c1nnc(NC(=O)C2CC2)cc1Nc1cccc(-c2cnn(C)c2)c1OC` [Example 63], the IC50 in experiment [1] worked out at 40 nM; in experiment [2] it was 60 nM.

For `CNC(=O)c1nnc(NC(=O)C2CC2)cc1Nc1cccc(-n2cccn2)c1OC` [Example 64], the IC50 in experiment [1] amounted to 250 nM; in experiment [2], 60 nM.

In the case of `CNC(=O)c1nnc(Nc2ccccn2)cc1Nc1cccc(-n2cccn2)c1OC` [Example 65], the IC50 in experiment [1] came to 60 nM; in experiment [2] it was 20 nM.

Regarding `CNC(=O)c1nnc(NC(=O)C2CC2)cc1Nc1cccc(-c2ncn(C)n2)c1OC` [Example 67], the IC50 in experiment [1] came out at 100 nM; in experiment [2], 70 nM.

Consider `CCc1cc(Nc2cc(Nc3cccc(-c4ncn(C)n4)c3OC)c(C(=O)NC)nn2)ncn1` [Example 68], for which the half-inhibitory concentration (IC50) in experiment [1] was 6.56 nM; in experiment [2], 3.45 nM.

`CNC(=O)c1nnc(Nc2ccc(F)cn2)cc1Nc1cccc(-c2ncccn2)c1OC` [Example 71]: the results for the IC50 in experiment [1] and in experiment [2] were 10 nM and 5.99 nM, respectively.

As to `CNC(=O)c1nnc(Nc2ccc(F)cn2)cc1Nc1cccc(-c2cnccn2)c1OC` [Example 74], the IC50 is 20 nM in experiment [1] and 5.15 nM in experiment [2].

With `CNC(=O)c1nnc(Nc2ccc(F)cn2)cc1Nc1cccc(-c2ccccn2)c1OC` [Example 77], the IC50 in experiment [1] is 70 nM; in experiment [2], 20 nM.

Turning to `CNC(=O)c1nnc(Nc2ccc(F)cn2)cc1Nc1cccc(-c2cccnn2)c1OC` [Example 79], the IC50 came to 80 nM in experiment [1] and 30 nM in experiment [2].

Take `CNC(=O)c1nnc(Nc2ccc(F)cn2)cc1Nc1cccc(-c2nccc(C)n2)c1OC` [Example 83]: the half-inhibitory concentration (IC50) was found to be 50 nM in experiment [1] and 40 nM in experiment [2].

On to `CNC(=O)c1nnc(Nc2cc(OC)ncn2)cc1Nc1cccc(-c2ncn(C)n2)c1OC` [Example 88], for which the IC50 in experiment [1] was 20 nM; in experiment [2], 9.97 nM.

With `CNC(=O)c1nnc(Nc2ccc(F)cn2)cc1Nc1cccc(-c2ccncn2)c1OC` [Example 89], the values for the IC50 in experiment [1] and in experiment [2] were 20 nM and 2.18 nM, respectively.

On to `CNC(=O)c1nnc(Nc2ccccn2)cc1Nc1cccc(-c2ncccn2)c1OC` [Example 91], for which the half-inhibitory concentration (IC50) in experiment [1] came to 20 nM; in experiment [2], 3.62 nM.

`CNC(=O)c1nnc(Nc2cc(C)n(C)n2)cc1Nc1cccc(-c2ncccn2)c1OC` [Example 92]: the IC50 is 40 nM in experiment [1] and 8.63 nM in experiment [2].

`CNC(=O)c1nnc(Nc2cc(C)n(C)n2)cc1Nc1cccc(-c2ccn(C)n2)c1OC` [Example 93]: the IC50 was determined as 50 nM in experiment [1] and 10 nM in experiment [2].

Take `CNC(=O)c1nnc(NC(=O)C2CC2)cc1Nc1cccc(-c2nc(C)cs2)c1OC` [Example 95]: the IC50 stood at 100 nM in experiment [1] and 20 nM in experiment [2].

In the case of `CNC(=O)c1nnc(Nc2ccccn2)cc1Nc1cccc(-c2ccncn2)c1OC` [Example 96], the IC50 in experiment [1] turned out to be 40 nM; in experiment [2], 7.38 nM.

In the case of `CNC(=O)c1nnc(Nc2cc(C)nc(C)n2)cc1Nc1cccc(-c2nc(C)cs2)c1OC` [Example 97], the IC50 in experiment [1] is 10 nM; in experiment [2] it was 20 nM.

`CNC(=O)c1nnc(Nc2cc(OC(C)C)ncn2)cc1Nc1cccc(-c2ncn(C)n2)c1OC` [Example 98]: the figures for the IC50 in experiment [1] and in experiment [2] were 30 nM and 9.16 nM, respectively.

As to `CNC(=O)c1nnc(Nc2cc(N3CCN(CCO)CC3)nc(C)n2)cc1Nc1cccc(-c2ncn(C)n2)c1OC` [Example 99], the values for the IC50 in experiment [1] and in experiment [2] were 60 nM and 20 nM, respectively.

Regarding `CNC(=O)c1nnc(Nc2cc(C)n(C)n2)cc1Nc1cccc(-c2nc(C)cs2)c1OC` [Example 100], the IC50 stood at 40 nM in experiment [1] and 50 nM in experiment [2].

For the compound `CNC(=O)c1nnc(NC(=O)C2CC2)cc1Nc1cccc(-c2ncc(C)s2)c1OC` [Example 101], the IC50 turned out to be 100 nM in experiment [1] and 60 nM in experiment [2].

As for `CNC(=O)c1nnc(Nc2ccnc(C)n2)cc1Nc1cccc(-c2ncn(C)n2)c1OC` [Example 103], the IC50 in experiment [1] was found to be 20 nM; in experiment [2] it was 6.06 nM.

As for `CNC(=O)c1nnc(NC(=O)C2CC2)cc1Nc1cccc(-c2nccs2)c1OC` [Example 105], the IC50 in experiment [1] worked out at 180 nM; in experiment [2], 140 nM.

With `CNC(=O)c1nnc(Nc2cc(C)c(F)cn2)cc1Nc1cccc(-c2nccs2)c1OC` [Example 106], the concentration for half-maximal inhibition (IC50) in experiment [1] and in experiment [2] was 80 nM in each case.

Turning to `CNC(=O)c1nnc(Nc2cc(C)n(C)n2)cc1Nc1cccc(-c2nccs2)c1OC` [Example 107], the IC50 in experiment [1] was found to be 90 nM; in experiment [2], 140 nM.

With `CNC(=O)c1nnc(Nc2cc(C)ncn2)cc1Nc1cccc(-c2ncn(C)n2)c1OC` [Example 109], the IC50 in experiment [1] was 10 nM; in experiment [2] it was 7.13 nM.

For `CNC(=O)c1nnc(Nc2cc(CO)ccn2)cc1Nc1cccc(-c2ncn(C)n2)c1OC` [Example 110], the values for the IC50 in experiment [1] and in experiment [2] were 80 nM and 20 nM, respectively.

Regarding `CNC(=O)c1nnc(Nc2ccn(C)n2)cc1Nc1cccc(-c2ncccn2)c1OC` [Example 111], the IC50 in experiment [1] was found to be 30 nM; in experiment [2], 10 nM.

With `CNC(=O)c1nnc(Nc2cnc(C)cn2)cc1Nc1cccc(-c2ncccn2)c1OC` [Example 113], the IC50 in experiment [1] is 30 nM; in experiment [2], 4.41 nM.

In the case of `CCc1cc(Nc2cc(Nc3cccc(-c4ncn(C)n4)c3OC)c(C(=O)NC)nn2)nc(C)n1` [Example 115], the IC50 in experiment [1] is 2.96 nM; in experiment [2], 1.6 nM.

`CNC(=O)c1nnc(NC(=O)C2CC2)cc1Nc1cccc(-c2ncc(F)cn2)c1OC` [Example 116]: the IC50 stood at 20 nM in experiment [1] and 30 nM in experiment [2].

Turning to `CNC(=O)c1nnc(Nc2ccccn2)cc1Nc1cccc(-c2ncc(C)s2)c1OC` [Example 117], the IC50 in experiment [1] was found to be 80 nM; in experiment [2], 30 nM.

`CNC(=O)c1nnc(Nc2ccncn2)cc1Nc1cccc(-c2ncccn2)c1OC` [Example 118]: the results for the IC50 in experiment [1] and in experiment [2] were 30 nM and 20 nM, respectively.

As to `CNC(=O)c1nnc(Nc2cc(C)ncn2)cc1Nc1cccc(-c2ncccn2)c1OC` [Example 119], the figures for the IC50 in experiment [1] and in experiment [2] were 10 nM and 7.37 nM, respectively.

Take `CNC(=O)c1nnc(Nc2cc(C(C)(C)O)ccn2)cc1Nc1cccc(-c2ncn(C)n2)c1OC` [Example 120]: the IC50 in experiment [1] amounted to 60 nM; in experiment [2], 10 nM.

In the case of `CNC(=O)c1nnc(Nc2cc(C)nc(C)n2)cc1Nc1cccc(-c2ncccn2)c1OC` [Example 121], the IC50 came out at 2.64 nM in experiment [1] and 2.33 nM in experiment [2].

Turning to `CNC(=O)c1nnc(Nc2ccc(C)nn2)cc1Nc1cccc(-c2ncccn2)c1OC` [Example 122], the IC50 stood at 30 nM in experiment [1] and 3.2 nM in experiment [2].

Regarding `CNC(=O)c1nnc(Nc2cccnn2)cc1Nc1cccc(-c2ncccn2)c1OC` [Example 123], the IC50 in experiment [1] amounted to 5.9 nM; in experiment [2], 6.81 nM.

As for `CNC(=O)c1nnc(Nc2cc(C)c(F)cn2)cc1Nc1cccc(-c2ncc(C)s2)c1OC` [Example 124], the values for the IC50 in experiment [1] and in experiment [2] were 700 nM and 490 nM, respectively.

In the case of `CNC(=O)c1nnc(NC(=O)C2CC2)cc1Nc1cccc(-c2cscn2)c1OC` [Example 126], the IC50 turned out to be 40 nM in experiment [1] and 30 nM in experiment [2].

With `CCOc1ccnc(Nc2cc(Nc3cccc(-c4ncn(C)n4)c3OC)c(C(=O)NC)nn2)c1` [Example 127], the figures for the IC50 in experiment [1] and in experiment [2] were 30 nM and 20 nM, respectively.

Consider `CCc1ccnc(Nc2cc(Nc3cccc(-c4ncn(C)n4)c3OC)c(C(=O)NC)nn2)c1` [Example 128], for which the IC50 amounted to 6.08 nM in experiment [1] and 3.17 nM in experiment [2].

As for `CNC(=O)c1nnc(Nc2cc(C)c(F)cn2)cc1Nc1cccc(-c2cscn2)c1OC` [Example 129], the IC50 in experiment [1] came out at 20 nM; in experiment [2] it was 10 nM.

With `CNC(=O)c1nnc(Nc2cc(C)nc(C)n2)cc1Nc1cccc(-c2cscn2)c1OC` [Example 130], the IC50 came to 9.7 nM in experiment [1] and 10 nM in experiment [2].

As for `CNC(=O)c1nnc(Nc2cc(C)n(C)n2)cc1Nc1cccc(-c2cscn2)c1OC` [Example 131], the IC50 in experiment [1] and in experiment [2] was 20 nM throughout.

As for `CNC(=O)c1nnc(Nc2ccccn2)cc1Nc1cccc(-c2cscn2)c1OC` [Example 132], the IC50 in experiment [1] and in experiment [2] was 20 nM throughout.
